# Measured values taken from US20190142810A1, “MITOCHONDRIAL INHIBITORS FOR THE TREATMENT OF PROLIFERATION DISORDERS” (Basilea Pharmaceutica International AG, priority 2016, published 2019).
# Tested on: HeLa galactose cells
# Experiment: Cell growth and proliferation assay of HeLa galactose cells (crystal violet)
# Type: cell-based
# Details: 72 hours incubation, crystal violet staining, absorbance at 590 nm
# Experimental: The cervical tumor cell line HeLa (ATCC, CCL-2) was cultivated in DMEM medium (Invitrogen cat. no. 11971, 4.5 g/L high glucose) containing 10% fetal calf serum (Sigma cat. no. F9665) and 1% Penicillin/Streptomycin (Sigma cat. no. P0781) at 37° C. in 5% CO2. HeLa galactose cells (i.e. HeLa cells that grow in high concentrations of galactose) were generated from HeLa glucose cells (i.e. HeLa cells that grow in high concentrations of glucose) by gradually changing the amount of glucose in the media to zero glucose in the presence of galactose as a sugar source (50% galactose/50% glucose media for one week, then 75% galactose/25% glucose media for one week, to 100% galactose media in the third week). Galactose media (Invitrogen cat. no. 11966) was supplemented with 10 mM galactose (Sigma cat. no. G5388).
# Cell Growth and Proliferation Assay of HeLa Galactose and Glucose Cells
# HeLa galactose cells and HeLa glucose cells were seeded in 96 well plates (TPP, cat. no 92696) at 2000 and 1500 cells/well, respectively, in 100 μL of complete medium. After overnight incubation the cells were incubated for 72 hours in complete medium containing 0.001% DMSO or compounds (final concentration of DMSO 0.001%). After the medium was removed, cells were fixed and stained by adding 50 μL crystal violet staining (0.2% crystal violet (Sigma-Aldrich cat. no. C0775) in 50% methanol) per well. The plates were incubated for 1 hour at room temperature. Subsequently the stain was decanted and plates were washed 4 times with de-mineralized water. Plates were air-dried for 2 hours. The stain was dissolved by adding 100 μL buffer (0.1 M Tris pH 7.5, 0.2% SDS, 20% ethanol) per well and shaking the plates. Absorbance at 590 nm was measured using a SpectraMax® 250 plate reader (Molecular Devices). Antiproliferative/growth inhibition IC50s were calculated from concentration-response curves using GraphPad Prism software.
SMILES,"IC50 (Homo sapiens, HeLa, 72 h)",IC50
"Cc1nsc(NC(=O)N2CCC(=Cc3c(F)cc(O)cc3F)CC2)n1 [Example 99, 4-[(2,6-difluoro-4-hydroxy-phenyl)methylene]-N-(3-methyl-1,2,4-thiadiazol-5-yl)piperidine-1-carboxamide]",307 nM,
Cc1nsc(NC(=O)N2CCC(=Cc3ccc(OCCCN)cc3F)CC2)n1 [Example 111],514 nM,
"N#CCc1cc(NC(=O)N2CCC(=Cc3ccc(Cl)cc3F)CC2)ccn1 [Example 178, 4-[(4-chloro-2-fluoro-phenyl)methylene]-N-[2-(cyanomethyl)-4-pyridyl]piperidine-1-carboxamide]",155 nM,
"Cc1nsc(NC(=O)N2CCC(=Cc3ccc(OCCCO)cc3F)CC2)n1 [Example 107, 4-[[2-fluoro-4-(3-hydroxypropoxy)phenyl]methylene]-N-(3-methyl-1,2,4-thiadiazol-5-yl)piperidine-1-carboxamide]",389 nM,
Cc1nsc(NC(=O)N2CCN(Cc3ccc(Cl)cc3F)CC(O)C2)n1 (stereo not drawn) [Example 162],162 nM,
Cc1cc(NC(=O)N2CCC(C(=O)c3c(F)cc(C#N)cc3F)CC2)ccn1 [Example 174],160 nM,
Cc1cc(NC(=O)N2CCC(C(=O)c3ccc(C#N)cc3F)CC2)ccn1 [Example 172],126 nM,
Cc1cc(NC(=O)N2CCC(C(=O)c3ccc(N(C)C)cc3F)CC2)ccn1 [Example 156],193 nM,
Cc1nsc(NC(=O)N2CCC(C(C)c3ccc(Cl)cc3F)CC2)n1 (stereo not drawn) [Example 105],482 nM,
"Cc1nsc(NC(=O)N2CCC(C(=O)c3ccc(C(F)(F)F)cc3F)CC2)n1 [Example 142, 4-[2-fluoro-4-(trifluoromethyl)benzoyl]-N-(3-methyl-1,2,4-thiadiazol-5-yl)piperidine-1-carboxamide]",86 nM,
"O=C(Nc1ccncn1)N1CCC(Cc2ccc(Cl)cc2Cl)CC1 [Example 22, 4-[(2,4-dichlorophenyl)methyl]-N-pyrimidin-4-yl-piperidine-1-carboxamide]",837 nM,
Cc1nsc(NC(=O)N2CCC(=Cc3c(F)cc(NC4CCOC4)cc3F)CC2)n1 (stereo not drawn) [Example 150],124 nM,
Cc1cc(NC(=O)N2CCC(=Cc3c(F)cc(C#N)cc3F)CC2)ccn1 [Example 175],58 nM,
"CC(=O)NCCN(C)c1ccc(C=C2CCN(C(=O)Nc3nc(C)ns3)CC2)c(F)c1 [Example 123, 4-[[4-[2-acetamidoethyl(methyl)amino]-2-fluoro-phenyl]methylene]-N-(3-methyl-1,2,4-thiadiazol-5-yl)piperidine-1-carboxamide]",245 nM,
"Cc1nsc(NC(=O)N2CCC(=Cc3ccc(C=O)cc3F)CC2)n1 [Example 88, 4-[(2-fluoro-4-formyl-phenyl)methylene]-N-(3-methyl-1,2,4-thiadiazol-5-yl)piperidine-1-carboxamide]",418 nM,
Cc1nsc(NC(=O)N2CCC(=Cc3ccc(N(C)CCCN)cc3F)CC2)n1 [Example 124],70 nM,

SMILES,"IC50 (Homo sapiens, HeLa, 72 h)",IC50
Cc1nsc(NC(=O)N2CC/C(=C/c3c(F)cc(Cl)cc3F)CC2(C)C)n1 [Example 169],432 nM,
Cc1cc(NC(=O)N2CCC(=Cc3ccc(Cl)cc3F)CC2)ncn1 [Example 136],81 nM,
Cc1nsc(NC(=O)N2CCC(C(=O)c3ccc(C#N)cc3F)CC2)n1 [Example 171],67 nM,
Cc1cc(NC(=O)N2CCC(Cc3ccc(Cl)cc3F)CC2)cnn1 [Example 165],383 nM,
Cc1nsc(NC(=O)N2CCC(Cc3ccc(N4CCCC4)cc3)CC2)n1 [Example 42],670 nM,
Cc1nsc(NC(=O)N2CCC(Cc3ccc(OCC(C)C)cc3F)CC2)n1 [Example 31],795 nM,
Cc1nsc(NC(=O)N2CCC(Cc3ccc(N4CCCC4)cc3F)CC2)n1 [Example 44],429 nM,
"COCC1CN(C(=O)Nc2nc(C)ns2)CC/C1=C/c1ccc(Cl)cc1F (stereo not drawn) [Example 130, (4Z)-4-[(4-chloro-2-fluoro-phenyl)methylene]-3-(methoxymethyl)-N-(3-methyl-1,2,4-thiadiazol-5-yl)piperidine-1-carboxamide]",,355 nM
CCN(CC)c1cc(F)c(C=C2CCN(C(=O)Nc3nc(C)ns3)CC2)c(F)c1 [Example 159],215 nM,
Cc1nsc(NC(=O)N2CCCC(Cc3ccc(N(C)C)cc3F)CC2)n1 (stereo not drawn) [Example 126],68 nM,
"Cc1nsc(NC(=O)N2CCC(Cc3ccc(CN4CCOCC4)cc3)CC2)n1 [Example 34, N-(3-methyl-1,2,4-thiadiazol-5-yl)-4-[[4-(morpholinomethyl)phenyl]methyl]piperidine-1-carboxamide]",572 nM,
CC(=C1CCN(C(=O)Nc2nc(C)ns2)CC1)c1ccc(Cl)cc1F [Example 104],642 nM,
COC(=O)c1ccc(CC2CCN(C(=O)Nc3nc(C)ns3)CC2)c(F)c1 [Example 36],540 nM,
"COCCC1CN(C(=O)Nc2nc(C)ns2)CC/C1=C/c1ccc(Cl)cc1F (stereo not drawn) [Example 134, (4Z)-4-[(4-chloro-2-fluoro-phenyl)methylene]-3-(2-methoxyethyl)-N-(3-methyl-1,2,4-thiadiazol-5-yl)piperidine-1-carboxamide]",449 nM,
Cc1cc(NC(=O)N2CCC(=Cc3ccc(N(C)C)cc3F)CC2)ccn1 [Example 132],76 nM,
Cc1nsc(NC(=O)N2CCCC(=Cc3ccc(N(C)C)cc3F)CC2)n1 [Example 125],63 nM,

# Results, then the compound that gave them:
"IC50 (Homo sapiens, HeLa, 72 h)",IC50,SMILES
693 nM,,"Cc1nsc(NC(=O)N2CCC(=Cc3ccc(CN(C)CCO)cc3F)CC2)n1 [Example 90, 4-[[2-fluoro-4-[[2-hydroxyethyl(methyl)amino]methyl]phenyl]methylene]-N-(3-methyl-1,2,4-thiadiazol-5-yl)piperidine-1-carboxamide]"
330 nM,,"NCc1cc(NC(=O)N2CCC(=Cc3c(F)cc(Cl)cc3F)CC2)ccn1 [Example 180, N-[2-(aminomethyl)-4-pyridyl]-4-[(4-chloro-2,6-difluoro-phenyl)methylene]piperidine-1-carboxamide]"
516 nM,,Cc1nsc(NC(=O)N2CCC(Cc3ccc(Cl)cn3)CC2)n1 [Example 61]
439 nM,,Cc1nsc(NC(=O)N2CCC(=Cc3ccc(N4CCCC4)cc3)CC2)n1 [Example 43]
465 nM,,Cc1nsc(NC(=O)N2CCC(Oc3ccc(F)cc3)CC2)n1 [Example 73]
159 nM,,"Cc1nsc(NC(=O)N2CCC(=Cc3ccc(N)cc3F)CC2)n1 [Example 119, 4-[(4-amino-2-fluoro-phenyl)methylene]-N-(3-methyl-1,2,4-thiadiazol-5-yl)piperidine-1-carboxamide]"
888 nM,,"NC(=O)Cc1nsc(NC(=O)N2CCC(=Cc3ccc(Cl)cc3F)CC2)n1 [Example 81, N-[3-(2-amino-2-oxo-ethyl)-1,2,4-thiadiazol-5-yl]-4-[(4-chloro-2-fluoro-phenyl)methylene]piperidine-1-carboxamide]"
96 nM,,"O=C(Nc1ccnc(CO)c1)N1CCC(=Cc2ccc(Cl)cc2F)CC1 [Example 177, 4-[(4-chloro-2-fluoro-phenyl)methylene]-N-[2-(hydroxymethyl)-4-pyridyl]piperidine-1-carboxamide]"
293 nM,,Cc1nsc(NC(=O)N2CCC(=Cc3ccc(N(C)CCCCN)cc3F)CC2)n1 [Example 163]
407 nM,,"CNc1nsc(NC(=O)N2CCC(Cc3ccc(Cl)cc3F)CC2)n1 [Example 166, 4-[(4-chloro-2-fluoro-phenyl)methyl]-N-[3-(methylamino)-1,2,4-thiadiazol-5-yl]piperidine-1-carboxamide]"
492 nM,,Cc1nsc(NC(=O)N2CCC(=Cc3ccc(CNCCCN4CCOCC4)cc3F)CC2)n1 [Example 91]
467 nM,,Cc1nsc(NC(=O)N2CCC(=Cc3ccc(Cl)cc3F)C(F)C2)n1 (stereo not drawn) [Example 106]
636 nM,,"COCCC1CN(C(=O)Nc2nc(C)ns2)CC/C1=C\c1ccc(Cl)cc1F (stereo not drawn) [Example 135, (4E)-4-[(4-chloro-2-fluoro-phenyl)methylene]-3-(2-methoxyethyl)-N-(3-methyl-1,2,4-thiadiazol-5-yl)piperidine-1-carboxamide]"
182 nM,,"Cc1nsc(NC(=O)N2CCC(=Cc3ccc(N(C)CCN)cc3F)CC2)n1 [Example 122, 4-[[4-[2-aminoethyl(methyl)amino]-2-fluoro-phenyl]methylene]-N-(3-methyl-1,2,4-thiadiazol-5-yl)piperidine-1-carboxamide]"
280 nM,,Cc1nsc(NC(=O)N2CC/C(=C\c3c(F)cc(Cl)cc3F)CC2(C)C)n1 [Example 168]
264 nM,,Nc1cc(NC(=O)N2CCC(=Cc3ccc(Cl)cc3F)CC2)ccn1 [Example 131]
356 nM,,COc1ccc(CC2CCN(C(=O)Nc3nc(C)ns3)CC2)c(N)c1 [Example 23]
,100 nM,COCC1CN(C(=O)Nc2nc(C)ns2)CC/C1=C/c1ccc(Cl)cc1F (stereo not drawn) [Example 133]
415 nM,,"Cc1nsc(NC(=O)N2CCC(=Cc3ccc(C#CCO)cc3F)CC2)n1 [Example 170, 4-[[2-fluoro-4-(3-hydroxyprop-1-ynyl)phenyl]methylene]-N-(3-methyl-1,2,4-thiadiazol-5-yl)piperidine-1-carboxamide]"
